Laboratory results published in publication PMC11788324, “4,6-Disubstituted pyrimidine-based microtubule affinity-regulating kinase 4 (MARK4) inhibitors: synthesis, characterization, in-vitro activity and in-silico studies” (Frontiers in Pharmacology, 2025).

Columns and labels:
[1] = set-up: method as in Pant et al., 2024; conditions: compared with donepezil; ref Pant et al., 2024; cited from earlier work
MARK4 [2] = target: T1, MARK4 (Homo sapiens, UniProt Q96L34); experiment: Fluorescence quenching of MARK4; type: binding; conditions: data not included
T1 sequence (Q96L34 1-752): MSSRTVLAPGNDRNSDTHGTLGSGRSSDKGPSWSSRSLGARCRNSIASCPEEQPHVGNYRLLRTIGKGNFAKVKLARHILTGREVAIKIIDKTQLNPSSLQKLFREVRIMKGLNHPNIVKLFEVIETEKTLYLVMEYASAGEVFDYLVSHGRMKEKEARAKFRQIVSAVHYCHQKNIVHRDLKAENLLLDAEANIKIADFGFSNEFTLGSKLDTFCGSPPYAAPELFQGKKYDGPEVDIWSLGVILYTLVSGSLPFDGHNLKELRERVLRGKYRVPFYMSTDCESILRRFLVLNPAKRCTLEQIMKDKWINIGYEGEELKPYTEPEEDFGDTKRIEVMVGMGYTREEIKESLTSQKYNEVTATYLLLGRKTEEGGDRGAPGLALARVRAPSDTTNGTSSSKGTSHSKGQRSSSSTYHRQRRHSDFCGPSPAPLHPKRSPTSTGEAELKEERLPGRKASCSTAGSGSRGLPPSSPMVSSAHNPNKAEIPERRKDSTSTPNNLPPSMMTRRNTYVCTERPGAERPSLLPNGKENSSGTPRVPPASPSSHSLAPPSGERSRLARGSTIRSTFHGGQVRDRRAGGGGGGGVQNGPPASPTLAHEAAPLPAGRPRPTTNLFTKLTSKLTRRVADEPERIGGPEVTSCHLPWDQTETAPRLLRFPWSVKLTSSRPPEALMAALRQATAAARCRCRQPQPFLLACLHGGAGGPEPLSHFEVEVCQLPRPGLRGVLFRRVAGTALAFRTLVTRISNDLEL
From the text: MARKs, or microtubule-affinity regulating kinases, are a group of serine/threonine kinases found in mammals and other organisms ([Naz et al., 2013]). These kinases play a critical role in phosphorylating microtubule-associated proteins, which then go on to regulate important processes like cell cycle progression and cytoskeletal dynamics. These kinases are quite abundant in the human brain and are known to be key players in the development and progression of various diseases including cancer and ADs ([Alam et al., 2023]). Despite their high importance, there has been limited research on the development of synthetic small molecules (inhibitors) against MARK4 ([Li et al., 2020]; [Voura et al., 2022]). In the present study, we selected MARK4 as the target and assessed our compounds against it. The kinase inhibitory potential of the compounds against MARK4 was examined using an ATPase inhibition assay ([Yousuf et al., 2015]; [Yousuf et al., 2022]). […] Following this, attempts have been made to collect the fluorescence quenching of MARK4 in the presence of the best inhibitor (14). […] The rationale behind the behaviour is currently under investigation.

MARK4 [3] = target: T1, MARK4; experiment: MARK4 ATPase (malachite green) enzyme inhibition assay; type: biochemical; conditions: MARK4 5 μM, 1 hour at 25°C, triplicates
Experimental: The inhibitory potential of the synthesized compounds against MARK4 was analysed using the malachite green based enzyme inhibition assay. The malachite green kinase inhibition assay is a colorimetric technique designed to assess kinase activity by detecting the release of inorganic phosphate (Pi) during phosphorylation. When a kinase transfers a phosphate group from ATP to its substrate, Pi is generated as a byproduct. The malachite green reagent interacts with Pi to produce a green-colored complex, which can be quantified using a spectrophotometer. This assay is modified to evaluate enzyme inhibition by measuring the reduction in Pi release in the presence of potential inhibitors. […] The protein’s highest activity, MARK4 (ligand-free), was utilised as a reference, and various ligand concentrations were added to determine the IC50 value. […] Finally 96 well plates were filled with 100 μL of the reaction mixture, which was then scanned at 620 nm using a multiscan ELISA reader. […]
MARKs, or microtubule-affinity regulating kinases, are a group of serine/threonine kinases found in mammals and other organisms ([Naz et al., 2013]). […] In the present study, we selected MARK4 as the target and assessed our compounds against it. […] Following this, attempts have been made to collect the fluorescence quenching of MARK4 in the presence of the best inhibitor (14). […]

Row | fluorescence quenching of MARK4 emission (MARK4 [2]) | IC50 (MARK4 [3]) [µM] | SMILES | neuroprotective effects [1]
1 |  |  | Clc1ccc(Cc2ccnc(CCN3CCCCC3)n2)cc1 [a] | neuroprotective effects better than donepezil
2 | did not show appreciable quenching | 7.52 ± 0.33 | O=S(=O)(c1cccc2ccccc12)N1CCN(c2cc(-c3ccsc3)ncn2)CC1 [Compound 14, 4-(4-(Naphthalen-1-ylsulfonyl)-piperazin-1-yl)-6-(thiophen-3-yl)-pyrimidine] | 
3 |  | 13 ± 0.63 | COc1ccc(S(=O)(=O)N2CCN(c3cc(-c4ccsc4)ncn3)CC2)c(OC)c1 [Compound 9, 4-(4-((2,4-Dimethoxyphenyl)-sulfonyl)-piperazin-1-yl)-6-(thiophen-3-yl)-pyrimidine] | 
